Measurements from ChEMBL document CHEMBL3526096, “Species differences in biliary clearance and possible relevance of hepatic uptake and efflux transporters involvement” (Drug Metab Dispos, 2013).
Values belong to the molecule of their own block, whether it stands above or below them.

Columns and labels:
[1] = tested on: Homo sapiens; test: Unbound biliary clearance in human at 20 mg, iv after 24 hrs by T-tube method; format: ADME, organism-based, Bile; settings: in vivo
[2] = tested on: Rattus norvegicus; test: Total biliary clearance in Sprague-Dawley rat at 8 uCi, iv; format: ADME, organism-based, Bile; settings: in vivo
[3] = Drug excretion in human assessed as compound excreted into bile at 20 mg, iv after 24 hrs by T-tube method; format: ADME, organism-based; settings: read-out: Drug excretion
[4] = tested on: Homo sapiens; test: Total biliary clearance in human at 20 mg, iv after 24 hrs by T-tube method; format: ADME, organism-based, Bile; settings: in vivo
[5] = tested on: Rattus norvegicus; test: Unbound biliary clearance in Sprague-Dawley rat at 8 uCi, iv; format: ADME, organism-based, Bile; settings: in vivo
[6] = Drug excretion in human assessed as compound excreted into bile at 50 mg, iv after 24 hrs by T-tube method; format: ADME, organism-based; settings: read-out: Drug excretion
[7] = Drug excretion in iv dosed rat assessed as compound excreted into bile; format: ADME, organism-based; settings: read-out: Drug excretion
[8] = tested on: Rattus norvegicus; test: Total biliary clearance in Sprague-Dawley rat at 300 mg/kg, iv; format: ADME, organism-based, Bile; design: dose 300 mg/kg, route intravenous; settings: in vivo
[9] = Drug excretion in Sprague-Dawley rat assessed as compound excreted into bile at 300 mg/kg, iv; format: ADME, organism-based; design: dose 300 mg/kg, route intravenous; settings: read-out: Drug excretion
[10] = tested on: Homo sapiens; test: Unbound biliary clearance in human at 1 gm, iv after 8 hrs by T-tube method; format: ADME, organism-based, Bile; settings: in vivo
[11] = tested on: Rattus norvegicus; test: Unbound biliary clearance in Sprague-Dawley rat at 300 mg/kg, iv; format: ADME, organism-based, Bile; design: dose 300 mg/kg, route intravenous; settings: in vivo
[12] = Drug excretion in human assessed as compound excreted into bile at 1 gm, iv after 8 hrs by T-tube method; format: ADME, organism-based; settings: read-out: Drug excretion
[13] = tested on: Homo sapiens; test: Total biliary clearance in human at 1 gm, iv after 8 hrs by T-tube method; format: ADME, organism-based, Bile; settings: in vivo
[14] = Drug excretion in iv dosed dog assessed as compound excreted into bile; format: ADME, organism-based, Canis lupus familiaris; settings: read-out: Drug excretion
[15] = tested on: Homo sapiens; test: Unbound biliary clearance in iv dosed human after 20 hrs; format: ADME, organism-based, Bile; settings: in vivo
[16] = tested on: Canis familiaris; test: Unbound biliary clearance in iv dosed dog; format: ADME, organism-based, Canis lupus familiaris, Bile; settings: in vivo
[17] = Drug excretion in iv dosed human assessed as compound excreted into bile after 20 hrs; format: ADME, organism-based; settings: read-out: Drug excretion
[18] = tested on: Homo sapiens; test: Total biliary clearance in iv dosed human after 20 hrs by duodenal aspiration method; format: ADME, organism-based, Bile; settings: in vivo
[19] = tested on: Rattus norvegicus; test: Total biliary clearance in Wistar rat at 10 mg/kg, iv; format: ADME, organism-based, Bile; design: dose 10 mg/kg, route intravenous; settings: in vivo
[20] = Drug excretion in Wistar rat assessed as compound excreted into bile at 10 mg/kg, iv; format: ADME, organism-based; design: dose 10 mg/kg, route intravenous; settings: read-out: Drug excretion
[21] = tested on: Canis familiaris; test: Total biliary clearance in iv dosed dog; format: ADME, organism-based, Canis lupus familiaris, Bile; settings: in vivo
[22] = tested on: Rattus norvegicus; test: Unbound biliary clearance in Wistar rat at 10 mg/kg, iv; format: ADME, organism-based, Bile; design: dose 10 mg/kg, route intravenous; settings: in vivo
[23] = Drug excretion in iv dosed Sprague-Dawley rat assessed as compound excreted into bile; format: ADME, organism-based; settings: read-out: Drug excretion
[24] = tested on: Homo sapiens; test: Total biliary clearance in iv dosed human after 72 hrs by T-tube method; format: ADME, organism-based, Bile; settings: in vivo
[25] = tested on: Homo sapiens; test: Unbound biliary clearance in iv dosed human after 72 hrs by T-tube method; format: ADME, organism-based, Bile; settings: in vivo
[26] = tested on: Rattus norvegicus; test: Total biliary clearance in iv dosed Sprague-Dawley rat; format: ADME, organism-based, Bile; settings: in vivo
[27] = tested on: Rattus norvegicus; test: Unbound biliary clearance in iv dosed Sprague-Dawley rat; format: ADME, organism-based, Bile; settings: in vivo
[28] = Drug excretion in iv dosed human assessed as compound excreted into bile after 72 hrs by T-tube method; format: ADME, organism-based; settings: read-out: Drug excretion

SMILES: CCCCC(=O)N(Cc1ccc(-c2ccccc2-c2nnn[nH]2)cc1)[C@H](C(=O)O)C(C)C
CL free [1]: 10.775 mL/min/kg
CL [2]: 12.5 mL/min/kg
dose excreted at 24 h [3]: 88%
CL [4]: 0.431 mL/min/kg
CL free [5]: 378.8 mL/min/kg

SMILES: CNC(=C[N+](=O)[O-])NCCSCc1ccc(CN(C)C)o1 [RANITIDINE]
dose excreted at 24 h [6]: 1.5%
dose excreted [7]: 5%

SMILES: CO[C@@]1(NC(=O)C(C(=O)O)c2ccc(O)cc2)C(=O)N2C(C(=O)O)=C(CSc3nnnn3C)CO[C@@H]21 (stereo partly drawn) [MOXALACTAM]
CL [8]: 2.19 mL/min/kg
dose excreted [9]: 25%
CL free [10]: 0.008 mL/min/kg
CL free [11]: 4.294 mL/min/kg
dose excreted at 8 h [12]: 0.5%
CL [13]: 0.003 mL/min/kg

Next, values leading:

dose excreted [14]: 5%
CL free [15]: 7.169 mL/min/kg
CL free [16]: 4.483 mL/min/kg
dose excreted at 20 h [17]: 13%
CL [18]: 1.147 mL/min/kg
CL [19]: 17.4 mL/min/kg
dose excreted [20]: 30%
CL [21]: 2.376 mL/min/kg
CL free [22]: 22.38 mL/min/kg
SMILES: CC[C@H]1OC(=O)[C@H](C)[C@@H](O[C@H]2C[C@@](C)(OC)[C@@H](O)[C@H](C)O2)[C@H](C)[C@@H](O[C@@H]2O[C@H](C)C[C@H](N(C)C)[C@H]2O)[C@](C)(O)C[C@@H](C)C(=O)[C@H](C)[C@@H](O)[C@]1(C)O [ERYTHROMYCIN]

dose excreted [23]: 43%
CL [24]: 0.209 mL/min/kg
CL free [25]: 0.523 mL/min/kg
CL [26]: 33.1 mL/min/kg
CL free [27]: 84.87 mL/min/kg
dose excreted at 72 h [28]: 10%
SMILES: CC[C@]1(O)C[C@H]2CN(CCc3c([nH]c4ccccc34)[C@@](C(=O)OC)(c3cc4c(cc3OC)N(C=O)[C@H]3[C@@](O)(C(=O)OC)[C@H](OC(C)=O)[C@]5(CC)C=CCN6CC[C@]43[C@@H]65)C2)C1 [VINCRISTINE]
